Series [1] is described as follows: Turbidity of crude library peptides (absorbance at 600 nm). In kind it is physicochemical. The settings on record: Physical stability of peptides. In a few lines: (§1)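 Turbidity is the absorbance at 600 nm, taken before heating. Fibril signal is the mean ThT emission at 480 nm (450 nm excitation), read every 10 min over 72 h at 40° C with 700 rpm shaking between reads. Peptides at 267 μM, pH 4.0 acetate or pH 7.0 phosphate buffer (50 mM), 4 μM ThT final.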

A short description of series [2]: Fibril formation of crude library peptides (Thioflavin T). The class given is physicochemical. On the set-up: key: average ThT fluorescence emission at 480 nm (ex 450 nm), raw units. The following applies: Physical stability of peptides. In a few lines:
as §1

For series [3], the target named is GLP1R (Homo sapiens, UniProt P43220). Kind of series: hGLP1R potency, cAMP accumulation in CHO-K1 cells stably overexpressing hGLP1R. Also noted: host or cells: CHO-K1. The following applies: for Selectivity: SCTR EC50/GLP1R EC50 ratio; for EC50: cAMP accumulation, CHO-K1 cells overexpressing hGLP1R, read-out: pEC50 hGLPR1 (converted). In kind it is cell-based. In a few lines: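 EC50 derives from variable-slope nonlinear regression of cAMP HTRF signal, with purified peptides tested as 11 three-fold dilutions in duplicate. Assay: hGLP1R-overexpressing CHO-K1 cells, 0.5 mM IBMX, 0.05% casein in DPBS, 30 min room-temperature stimulation, GLP-1(7-36) as reference agonist.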
For orientation: Cyclic AMP is a second messenger, typically raised through Gs and lowered through Gi signalling.

Series [4] has as its target SCTR (Homo sapiens, UniProt P47872). Kind of series: hSCTR potency, cAMP accumulation in CHO-K1 cells stably overexpressing hSCTR. On the set-up: alternatively Euroscreen ES-712-AF; FAST-0161L; host or cells: CHO-K1. The following applies: cAMP accumulation, CHO-K1 cells overexpressing hSCTR; read-out: pEC50 hSCTR (converted). In kind it is cell-based. In a few lines: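 EC50 derived from variable-slope nonlinear regression on 11-point, 3-fold series run in duplicate (crude peptides: 5 points, 10-fold, n=1). Compound stimulation lasted 30 min at room temperature in casein/IBMX-containing DPBS (0.05%, 0.5 mM), 2000 cells/well; cAMP detected by time-resolved FRET after one hour.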

Numbered stars: 1 amine (or outer) side, 2 acyl side, 3 side chain; on linkers, the order of the positions; unused ones are H or OH. Square brackets hold non-standard residues; d marks the D form. Side chains are listed from the residue outwards. Peptide text beside a SMILES is read from it. * marks the point of attachment. C20 diacid = O=C(O)CCCCCCCCCCCCCCCCCCC(=O)*; γGlu = O=C(O)[C@H](CCC(=O)[*:2])N[*:1]; AEEA = NCCOCCOCC(=O)O; Aib = CC(C)(N)C(=O)O

Chain of GLP1R (P43220 24-463): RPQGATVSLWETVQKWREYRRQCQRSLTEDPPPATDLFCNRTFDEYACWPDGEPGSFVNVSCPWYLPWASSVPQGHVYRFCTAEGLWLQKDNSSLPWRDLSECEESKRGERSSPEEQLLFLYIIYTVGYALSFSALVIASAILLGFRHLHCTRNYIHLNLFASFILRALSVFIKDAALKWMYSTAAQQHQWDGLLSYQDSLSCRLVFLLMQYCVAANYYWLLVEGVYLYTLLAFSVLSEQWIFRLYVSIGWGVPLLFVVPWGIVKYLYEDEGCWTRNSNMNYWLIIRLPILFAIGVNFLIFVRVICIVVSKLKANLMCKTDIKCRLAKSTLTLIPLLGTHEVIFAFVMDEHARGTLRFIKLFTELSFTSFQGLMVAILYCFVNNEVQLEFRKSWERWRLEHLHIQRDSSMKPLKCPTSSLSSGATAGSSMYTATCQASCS
Chain of SCTR (P47872 23-440): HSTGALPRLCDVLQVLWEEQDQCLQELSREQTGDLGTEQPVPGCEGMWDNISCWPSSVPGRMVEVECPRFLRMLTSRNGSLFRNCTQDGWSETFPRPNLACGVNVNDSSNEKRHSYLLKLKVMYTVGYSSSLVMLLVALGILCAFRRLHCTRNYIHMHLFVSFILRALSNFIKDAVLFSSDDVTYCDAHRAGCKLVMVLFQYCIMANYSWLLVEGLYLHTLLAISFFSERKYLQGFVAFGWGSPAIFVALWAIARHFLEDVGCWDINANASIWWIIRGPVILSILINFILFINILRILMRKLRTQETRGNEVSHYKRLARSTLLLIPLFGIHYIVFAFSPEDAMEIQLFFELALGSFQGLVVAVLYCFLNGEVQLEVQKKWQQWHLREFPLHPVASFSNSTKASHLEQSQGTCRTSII

For the compound `CC(C)C[C@H](NC(=O)[C@H](CCC(=O)O)NC(=O)[C@H](CCCCNC(=O)COCCOCCNC(=O)COCCOCCNC(=O)CC[C@H](NC(=O)CCCCCCCCCCCCCCCCCCC(=O)O)C(=O)O)NC(=O)[C@H](CC(C)C)NC(=O)[C@@H](NC(=O)[C@H](CO)NC(=O)[C@@H](NC(=O)[C@H](CC(=O)O)NC(=O)[C@H](CO)NC(=O)[C@@H](NC(=O)[C@H](Cc1ccccc1)NC(=O)[C@@H](NC(=O)CNC(=O)[C@H](CCC(=O)O)NC(=O)C(C)(C)NC(=O)[C@@H](N)Cc1c[nH]cn1)[C@@H](C)O)[C@@H](C)O)C(C)C)C(C)C)C(=O)N[C@@H](C)C(=O)N[C@@H](C)C(=O)N[C@@H](CCC(N)=O)C(=O)N[C@@H](CCC(N)=O)C(=O)N[C@@H](CCCNC(=N)N)C(=O)N[C@@H](Cc1ccccc1)C(=O)N[C@@H](CC(C)C)C(=O)N[C@@H](CCC(=O)O)C(=O)N[C@@H](Cc1c[nH]cn1)C(=O)N[C@@H](CC(C)C)C(=O)N[C@H](C(N)=O)C(C)C` [compound 33] (H-H[Aib]EGTFTSDVSVLK([AEEA-AEEA-γGlu-C20 diacid])ELAAQQRFLEHLV-NH2), the “Turbidity (pH 7)” value in series [1] came to 0.08. In series [2], this compound returned a Fibril formation of 45087. In series [3], the Selectivity was found to be 5737 and the EC50 is 0.0631 nM. For the same compound, the EC50 in series [4] was 316 nM.

On to `CC(C)C[C@H](NC(=O)[C@H](Cc1ccccc1)NC(=O)[C@H](CCCNC(=N)N)NC(=O)[C@H](CCC(N)=O)NC(=O)[C@H](CCC(=O)O)NC(=O)[C@H](C)NC(=O)[C@H](C)NC(=O)[C@@H](NC(=O)[C@H](CCC(=O)O)NC(=O)[C@H](CCCCNC(=O)COCCOCCNC(=O)COCCOCCNC(=O)CC[C@H](NC(=O)CCCCCCCCCCCCCCCCCCC(=O)O)C(=O)O)NC(=O)[C@H](CC(C)C)NC(=O)[C@H](CCCNC(=N)N)NC(=O)[C@H](CO)NC(=O)[C@@H](NC(=O)[C@H](CC(=O)O)NC(=O)[C@H](CO)NC(=O)[C@@H](NC(=O)[C@H](Cc1ccccc1)NC(=O)[C@@H](NC(=O)CNC(=O)[C@H](CCC(=O)O)NC(=O)C(C)(C)NC(=O)[C@@H](N)Cc1c[nH]cn1)[C@@H](C)O)[C@@H](C)O)C(C)C)[C@@H](C)O)C(=O)N[C@@H](CCC(=O)O)C(=O)N[C@@H](Cc1c[nH]cn1)C(=O)N[C@@H](CC(C)C)C(=O)N[C@H](C(N)=O)C(C)C` [compound 34] (H-H[Aib]EGTFTSDVSRLK([AEEA-AEEA-γGlu-C20 diacid])ETAAEQRFLEHLV-NH2), for which, in series [1], the “Turbidity (pH 7)” value is recorded as 0.08. This compound showed a Fibril formation in series [2] of 11365. In series [3], the Selectivity was 18582 and the EC50 was 0.0251 nM. Further, in series [4], the EC50 was 398 nM.

Regarding `CC(C)C[C@H](NC(=O)[C@H](Cc1ccccc1)NC(=O)[C@H](CCCNC(=N)N)NC(=O)[C@H](CCC(N)=O)NC(=O)C(C)(C)NC(=O)[C@H](C)NC(=O)[C@H](C)NC(=O)[C@H](CCC(=O)O)NC(=O)[C@H](CCC(=O)O)NC(=O)[C@H](CCCCNC(=O)COCCOCCNC(=O)COCCOCCNC(=O)CC[C@H](NC(=O)CCCCCCCCCCCCCCCCCCC(=O)O)C(=O)O)NC(=O)[C@H](CC(C)C)NC(=O)[C@@H](NC(=O)[C@H](CO)NC(=O)[C@@H](NC(=O)[C@H](CC(=O)O)NC(=O)[C@H](CO)NC(=O)[C@@H](NC(=O)[C@H](Cc1ccccc1)NC(=O)[C@@H](NC(=O)CNC(=O)[C@H](CCC(=O)O)NC(=O)C(C)(C)NC(=O)[C@@H](N)Cc1c[nH]cn1)[C@@H](C)O)[C@@H](C)O)C(C)C)C(C)C)C(=O)N[C@@H](CCC(=O)O)C(=O)N[C@@H](Cc1c[nH]cn1)C(=O)N[C@@H](CC(C)C)C(=O)N[C@H](C(N)=O)C(C)C` [compound 35] (H-H[Aib]EGTFTSDVSVLK([AEEA-AEEA-γGlu-C20 diacid])EEAA[Aib]QRFLEHLV-NH2), in series [1], the “Turbidity (pH 7)” value is 0.08. The Fibril formation in series [2] is 8261. In series [3], the Selectivity was 43142 and the EC50 was 0.0158 nM. The EC50 in series [4] was 794 nM.

Take `CC(C)C[C@H](NC(=O)[C@H](CCC(=O)O)NC(=O)[C@H](CCCCNC(=O)COCCOCCNC(=O)COCCOCCNC(=O)CC[C@H](NC(=O)CCCCCCCCCCCCCCCCCCC(=O)O)C(=O)O)NC(=O)[C@H](CC(C)C)NC(=O)[C@H](CCC(=O)O)NC(=O)[C@H](CO)NC(=O)[C@@H](NC(=O)[C@H](CC(=O)O)NC(=O)[C@H](CO)NC(=O)[C@@H](NC(=O)[C@H](Cc1ccccc1)NC(=O)[C@@H](NC(=O)CNC(=O)[C@H](CCC(=O)O)NC(=O)C(C)(C)NC(=O)[C@@H](N)Cc1c[nH]cn1)[C@@H](C)O)[C@@H](C)O)C(C)C)C(=O)N[C@@H](C)C(=O)N[C@@H](C)C(=O)N[C@@H](CCC(=O)O)C(=O)N[C@@H](CCC(N)=O)C(=O)N[C@@H](CCCNC(=N)N)C(=O)N[C@@H](Cc1ccccc1)C(=O)N[C@@H](CC(C)C)C(=O)N[C@@H](CCC(=O)O)C(=O)N[C@@H](Cc1c[nH]cn1)C(=O)N[C@@H](CC(C)C)C(=O)N[C@H](C(N)=O)C(C)C` [compound 36] (H-H[Aib]EGTFTSDVSELK([AEEA-AEEA-γGlu-C20 diacid])ELAAEQRFLEHLV-NH2): in series [1], the “Turbidity (pH 7)” value is reported as 0.09. The same compound displayed a Fibril formation in series [2] of 9625. In addition, in series [3], the Selectivity amounted to 11143 and the EC50 was 0.0316 nM. The EC50 in series [4] is 316 nM.

On to `CC(C)C[C@H](NC(=O)[C@H](Cc1ccccc1)NC(=O)[C@H](CCCNC(=N)N)NC(=O)[C@H](CCC(N)=O)NC(=O)C(C)(C)NC(=O)[C@H](C)NC(=O)[C@H](C)NC(=O)[C@H](CCC(=O)O)NC(=O)[C@H](CCC(=O)O)NC(=O)[C@H](CCCCNC(=O)COCCOCCNC(=O)COCCOCCNC(=O)CC[C@H](NC(=O)CCCCCCCCCCCCCCCCCCC(=O)O)C(=O)O)NC(=O)[C@H](CC(C)C)NC(=O)[C@H](Cc1ccccc1)NC(=O)[C@H](CO)NC(=O)[C@@H](NC(=O)[C@H](CC(=O)O)NC(=O)[C@H](CO)NC(=O)[C@@H](NC(=O)[C@H](Cc1ccccc1)NC(=O)[C@@H](NC(=O)CNC(=O)[C@H](CCC(=O)O)NC(=O)C(C)(C)NC(=O)[C@@H](N)Cc1c[nH]cn1)[C@@H](C)O)[C@@H](C)O)C(C)C)C(=O)N[C@@H](CCC(=O)O)C(=O)N[C@@H](Cc1c[nH]cn1)C(=O)N[C@@H](CC(C)C)C(=O)N[C@H](C(N)=O)C(C)C` [compound 37] (H-H[Aib]EGTFTSDVSFLK([AEEA-AEEA-γGlu-C20 diacid])EEAA[Aib]QRFLEHLV-NH2), for which, in series [1], the “Turbidity (pH 7)” value is given as 0.08. In series [2], this compound returned a Fibril formation of 12367. Moreover, in series [3], the Selectivity is 158052 and the EC50 is 0.0126 nM. Also, the EC50 in series [4] was 2000 nM.
